Reference: patent publication US20230416199A1, “INHIBITORS OF AMINO ACID TRANSPORT” (ICAHN SCHOOL OF MEDICINE AT MOUNT SINAI, priority 2020, published 2023)
Read-outs that look alike come from different tables or passages of the source.

Key:
Type in all cases: cell-based
hASCT1 = target: T1, hASCT1 (Homo sapiens, UniProt P43007); test: Electrophysiology (whole-cell current recording) of transfected HEK293 cells, hASCT1
T1 construct: expressed in transfected cells; host or cells: HEK293 (ATCC CRL-11268), transient transfection
T1 sequence (P43007 1-532): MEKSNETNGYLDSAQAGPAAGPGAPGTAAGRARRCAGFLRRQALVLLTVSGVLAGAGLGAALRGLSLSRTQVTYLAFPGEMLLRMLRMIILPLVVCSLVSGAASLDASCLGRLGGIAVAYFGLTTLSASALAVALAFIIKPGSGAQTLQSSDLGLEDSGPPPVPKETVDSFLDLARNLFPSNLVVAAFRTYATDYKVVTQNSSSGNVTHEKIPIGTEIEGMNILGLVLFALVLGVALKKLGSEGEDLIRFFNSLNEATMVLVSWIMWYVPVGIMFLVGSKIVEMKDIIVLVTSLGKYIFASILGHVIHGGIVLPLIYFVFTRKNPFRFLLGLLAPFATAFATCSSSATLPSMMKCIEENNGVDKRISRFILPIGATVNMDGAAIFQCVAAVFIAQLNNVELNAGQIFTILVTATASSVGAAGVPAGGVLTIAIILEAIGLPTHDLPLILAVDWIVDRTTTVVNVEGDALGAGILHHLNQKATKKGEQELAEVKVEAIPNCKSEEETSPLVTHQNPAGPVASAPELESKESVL
Protocol: (§1) Human embryonic kidney 293 (HEK293, ATCC CRL-11268) cells were cultured in DMEM media supplemented with 10% (v v) fetal bovine serum (FBS), 2 mM glutamine, 1% penicillin streptomycin solution, 1 mM sodium pyruvate and non-essential amino acids. Cells were maintained at 37° C. in a fully humidified atmosphere containing 5% CO2. rASCT2, hASCT2, hASCT1, EAAT1, EAAT2, EAAC1, EAAT5 and YFP complementary DNAs were each used to transiently transfect HEK293 using POLYPLUS Jet-prime transfection reagent. Cells were analyzed using electrophysiological techniques 24-40 hours after transfection.
(§2) Stock solutions of inhibitor was prepared in dimethyl sulfoxide (DMSO) up to 100 mM. Dilutions to working concentrations were made using external buffer. […] For rASCT2, hASCT2 and hASCT1, external buffer contained 140 mM NaCl, 2 mM MgCl2, 2 mM CaCl2), and 10 mM HEPES, pH 7.40 while internal pipette solution comprised of 130 mM NaSCN, 2 mM MgCl2, 10 mM EGTA, 10 mM HEPES and 10 mM alanine, pH 7.40. For specificity experiments with EAAT1, EAAT2, EAAC1 and EAAT5, internal solution contained 10 mM glutamate instead of alanine. Compounds were applied to HEK293 cells expressing DNA of interest suspended from a current recording electrode in whole cell configuration through a rapid solution exchange device. Cells are immersed in external buffer bath used to dissolve the inhibitors. The open pipette resistance was between 3 and 6 MΩ. Series resistance was not compensated in these experiments due to relatively small currents. Currents traces were recorded using an Adams and List EPC7 amplifier and digitized using a Molecular Devices Digidata A/D converter.
(§3) Linear and nonlinear curve fitting of the experimental data were analyzed using MicroCal Origin software. Nonlinear dose-response relationships were fitted with a Michaelis-Menten-like equation to obtain apparent Ki values in the absence of substrate (see TABLE 2 for Ki values). The figures show representative current traces and dose-response curves for hACST2 and rASCT2, used to obtain Ki values in TABLE 2 for compound SN 40. At least four experiments were performed with at least three different cells. Error bars in all graphs, e.g., in FIG. 1B and FIG. 1C and tables (Ki values) represent mean±SD.

rASCT2 = target: T2, rASCT2 (Rattus norvegicus, UniProt D3ZJ25); test: Electrophysiology (whole-cell current recording) of transfected HEK293 cells, rASCT2
T2 construct: expressed in transfected cells; host or cells: HEK293 (ATCC CRL-11268), transient transfection
T2 sequence (D3ZJ25 1-555): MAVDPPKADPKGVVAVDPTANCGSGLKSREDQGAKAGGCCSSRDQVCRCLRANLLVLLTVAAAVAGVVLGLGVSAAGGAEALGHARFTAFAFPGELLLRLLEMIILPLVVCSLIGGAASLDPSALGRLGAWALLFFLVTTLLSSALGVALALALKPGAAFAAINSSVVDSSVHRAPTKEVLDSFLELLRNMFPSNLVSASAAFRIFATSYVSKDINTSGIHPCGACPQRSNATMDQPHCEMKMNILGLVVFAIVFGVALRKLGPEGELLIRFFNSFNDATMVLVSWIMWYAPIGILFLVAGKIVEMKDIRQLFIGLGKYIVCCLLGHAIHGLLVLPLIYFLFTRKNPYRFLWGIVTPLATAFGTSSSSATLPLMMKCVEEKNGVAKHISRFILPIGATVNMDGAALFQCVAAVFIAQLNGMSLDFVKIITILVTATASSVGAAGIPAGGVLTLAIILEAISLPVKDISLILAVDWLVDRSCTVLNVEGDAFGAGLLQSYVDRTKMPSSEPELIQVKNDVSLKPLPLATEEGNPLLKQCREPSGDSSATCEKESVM
Protocol: as §1, §2, §3

hASCT2 = target: T3, hASCT2 (Homo sapiens, UniProt Q15758); test: Electrophysiology (whole-cell current recording) of transfected HEK293 cells, hASCT2
T3 construct: expressed in transfected cells; host or cells: HEK293 (ATCC CRL-11268), transient transfection
T3 sequence (Q15758 1-541): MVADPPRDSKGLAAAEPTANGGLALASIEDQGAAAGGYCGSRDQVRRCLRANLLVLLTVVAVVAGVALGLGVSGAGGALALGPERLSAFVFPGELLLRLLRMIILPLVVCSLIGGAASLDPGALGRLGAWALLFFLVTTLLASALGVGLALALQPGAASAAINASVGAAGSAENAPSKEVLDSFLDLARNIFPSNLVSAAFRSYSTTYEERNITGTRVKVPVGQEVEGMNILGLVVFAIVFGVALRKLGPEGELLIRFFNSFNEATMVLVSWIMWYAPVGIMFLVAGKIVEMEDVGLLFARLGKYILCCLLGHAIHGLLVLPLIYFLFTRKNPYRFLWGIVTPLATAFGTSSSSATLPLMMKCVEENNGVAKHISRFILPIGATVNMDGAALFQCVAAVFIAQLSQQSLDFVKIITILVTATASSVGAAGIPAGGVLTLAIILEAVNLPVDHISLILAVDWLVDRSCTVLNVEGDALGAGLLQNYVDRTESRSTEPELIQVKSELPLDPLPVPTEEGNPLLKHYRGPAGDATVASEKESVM
Protocol: as §1, §2, §3

EAAT1 = target: T4, EAAT1 (Homo sapiens, UniProt P43003); test: Electrophysiology specificity experiment in transfected HEK293 cells, EAAT1; conditions: apparent Ki, HEK293, internal solution 10 mM glutamate, mean ± SD
T4 construct: expressed in transfected cells; host or cells: HEK293 (ATCC CRL-11268), transient transfection
T4 sequence (P43003 whole entry, species assumed): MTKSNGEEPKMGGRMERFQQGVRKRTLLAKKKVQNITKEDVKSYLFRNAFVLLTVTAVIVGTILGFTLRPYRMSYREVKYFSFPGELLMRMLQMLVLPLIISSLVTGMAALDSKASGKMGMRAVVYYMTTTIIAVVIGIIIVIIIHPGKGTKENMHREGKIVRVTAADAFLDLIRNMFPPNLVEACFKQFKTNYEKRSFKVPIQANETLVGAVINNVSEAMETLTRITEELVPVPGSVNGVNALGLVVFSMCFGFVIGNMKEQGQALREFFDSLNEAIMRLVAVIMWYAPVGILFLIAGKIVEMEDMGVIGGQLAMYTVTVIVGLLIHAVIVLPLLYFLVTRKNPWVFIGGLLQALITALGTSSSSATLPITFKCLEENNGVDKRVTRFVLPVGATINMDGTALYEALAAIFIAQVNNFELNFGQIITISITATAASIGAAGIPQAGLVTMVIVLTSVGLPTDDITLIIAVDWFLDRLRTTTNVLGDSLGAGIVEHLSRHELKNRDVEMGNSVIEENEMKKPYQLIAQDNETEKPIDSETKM
Protocol: as §1, §2, §3

[1] = apparent Ki in the absence of substrate, HEK293, mean ± SD, read-out: Ki hASCT1
[2] = apparent Ki in the absence of substrate, HEK293, mean ± SD, read-out: Ki rASCT2
[3] = apparent Ki in the absence of substrate, HEK293, mean ± SD, read-out: Ki hASCT2
[4] = Table 3, dihydroxyproline derivatives, read-out: Ki All DNA: hASCT1
[5] = Table 3, dihydroxyproline derivatives, read-out: Ki All DNA: rASCT2
[6] = Table 3, dihydroxyproline derivatives, read-out: Ki All DNA: hASCT2

SMILES | Ki (hASCT1; [1]) [µM] | Ki (rASCT2; [2]) [nM] | Ki (hASCT2; [3]) [nM] | other results
O=C(O[C@@H]1CN[C@H](C(=O)O)C1)c1ccc(Oc2ccccc2)cc1 [SN 20] | 5.71 ± 0.9 | 3680 ± 700 | 4170 ± 500 | 
N[C@H](C(=O)O)[C@H](O)COC(=O)c1ccc(-c2ccccc2)cc1 [SN 35] |  | 4830 ± 1000 | 840 ± 200 | 
O=C(O[C@]1(CO)CN[C@H](C(=O)O)C1)c1ccc(-c2ccc(F)cc2)cc1 [SN74] |  |  |  | Ki (hASCT1; [4]): 2.45 µM; Ki (rASCT2; [5]): 2160 nM; Ki (hASCT2; [6]): 3200 nM
O=C(Nc1ccc(C(=O)N[C@@H]2CN[C@H](C(=O)O)C2)cc1)c1ccccc1 [SN 48] | 7.9 ± 0.5 | 12400 ± 1800 | 17300 ± 2100 | 
O=C(OC[C@@]1(O)CN[C@H](C(=O)O)C1)c1ccc(C(=O)c2ccccc2)cc1 [SN61] |  |  |  | Ki (hASCT1; [4]): 18.6 µM; Ki (rASCT2; [5]): 88600 nM; Ki (hASCT2; [6]): 108000 nM
O=C(Nc1ccc(C(=O)O[C@@H]2CN[C@H](C(=O)O)C2)cc1)c1ccc(C(F)(F)F)cc1 [SN 15] | 8.51 ± 3.9 | 3370 ± 400 | 2940 ± 900 | Ki (EAAT1): 1.29 ± 0.2 µM
O=C(O[C@]1(CO)CN[C@H](C(=O)O)C1)c1ccc(-c2ccc(C(F)(F)F)cc2)cc1 [SN75] |  |  |  | Ki (hASCT1; [4]): 1.17 µM; Ki (rASCT2; [5]): 3310 nM; Ki (hASCT2; [6]): 8070 nM
O=C(N[C@@H]1CN[C@H](C(=O)O)C1)c1ccc(-c2ccccc2)cc1 [SN 45] |  | 1680 ± 600 | 4690 ± 1100 | 
O=C(O)[C@@H]1C[C@H](NCc2ccc(-c3ccc(C(F)(F)F)cc3)cc2)CN1 [SN 41] |  |  | 1150 ± 900 | 
O=C(O[C@]1(CO)CN[C@H](C(=O)O)C1)c1ccc(Oc2ccccc2)cc1 [SN76] |  |  |  | Ki (hASCT1; [4]): 12.2 µM; Ki (rASCT2; [5]): 20000 nM; Ki (hASCT2; [6]): 31900 nM
O=C(OC[C@@]1(O)CN[C@H](C(=O)O)C1)c1ccc(-c2cccc(F)c2)cc1F [SN60] |  |  |  | Ki (hASCT1; [4]): 8.15 µM; Ki (rASCT2; [5]): 4870 nM; Ki (hASCT2; [6]): 4610 nM
N[C@@H](COC(=O)c1ccc(C(O)c2ccccc2)cc1)C(=O)O (some centres unmarked) [SN 27] |  | 5170 ± 1200 |  | 
N[C@@H](COC(=O)c1ccc(C(=O)c2ccccc2)cc1)C(=O)O [SN 26] |  | 22000 ± 4500 |  | 
O=C(Nc1ccc(CN[C@@H]2CN[C@H](C(=O)O)C2)cc1)c1ccccc1 [SN 43] | 20 ± 2.3 | 27200 ± 1900 | 33600 ± 2500 | 
N[C@H](C(=O)O)[C@@H](O)COC(=O)c1ccc(-c2ccccc2)cc1 [SN 34] |  | 3630 ± 1100 | 10000 ± 2800 | 
O=C(Nc1cccc(CN[C@@H]2CN[C@H](C(=O)O)C2)c1)c1ccccc1 [SN 42] | 172 ± 24 | 74700 ± 18300 | 103000 ± 11200 | 
O=C(O[C@@H]1CN[C@H](C(=O)O)C1)c1cccc(-c2ccccc2)c1 [SN 06] |  | 5630 ± 1000 | 5560 ± 4700 | 
O=C(Nc1ccc(C(=O)O[C@@H]2CN[C@H](C(=O)O)C2)cc1)c1ccccc1 [SN 14] |  | 4580 ± 1100 |  | 
N[C@@H](COCc1ccc(-c2ccccc2)cc1)C(=O)O [SN 38] |  | 380 ± 170 |  | 
O=C(O[C@@H]1CN[C@H](C(=O)O)C1)c1ccc(-c2ccccn2)cc1 [SN 18] | 7.01 ± 2.1 | 2790 ± 700 | 3010 ± 500 | Ki (EAAT1): 12.4 ± 1 µM
O=C(O[C@@H]1CN[C@H](C(=O)O)C1)c1ccc(C(O)c2ccccc2)cc1 (some centres unmarked) [SN 13] | 43 ± 13.4 | 18800 ± 5000 | 5650 ± 1300 | Ki (EAAT1): 39.5 ± 19 µM
N[C@@H](CCOC(=O)c1ccc(-c2ccccc2)cc1)C(=O)O [SN 33] |  | 3510 ± 600 | 3500 ± 600 | 
O=C(O[C@@H]1CN[C@H](C(=O)O)C1)c1ccc(OCc2ccccc2)cc1 [SN 21] | > 100 | 8170 ± 1100 |  | 
O=C(Nc1cccc(C(=O)N[C@@H]2CN[C@H](C(=O)O)C2)c1)c1ccccc1 [SN 47] | 141 ± 17.6 | 151000 ± 13300 | 227000 ± 34200 | 
O=C(Nc1cccc(C(=O)O[C@@H]2CN[C@H](C(=O)O)C2)c1)c1ccc(C(F)(F)F)cc1 [SN 17] | 9.97 ± 0.5 |  |  | Ki (rASCT2; apparent Ki in the absence of substrate, HEK293, nM, read-out: Ki rASCT2): < 100 nM; Ki (hASCT2; apparent Ki in the absence of substrate, HEK293, nM, read-out: Ki hASCT2): < 100 nM
O=C(O[C@@H]1CN[C@H](C(=O)O)C1)c1c2ccccc2cc2ccccc12 [SN 22] |  | 10000 ± 5100 |  | 
O=C(OC[C@@]1(O)CN[C@H](C(=O)O)C1)c1ccc(C(O)c2ccccc2)cc1 (some centres unmarked) [SN63] |  |  |  | Ki (hASCT1; [4]): 93 µM; Ki (rASCT2; [5]): 232000 nM; Ki (hASCT2; [6]): 405000 nM
N[C@H](C(=O)O)[C@@H](CO)OC(=O)c1ccc(-c2ccccc2)cc1 [SN 37] |  | 7460 ± 900 | 2710 ± 500 | 
N[C@H](C(=O)O)[C@H](CO)OC(=O)c1ccc(-c2ccccc2)cc1 [SN 36] |  | 6020 ± 1800 | 6380 ± 1200 | 
N[C@@H](COC(=O)c1ccc(-c2cccc(F)c2)cc1F)C(=O)O [SN 24] |  | 19700 ± 3100 |  | 
